Reference: ChEMBL document CHEMBL1201862, “PubChem BioAssay data set” (2004)
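Interpolation was linear, between the two tested concentrations surrounding the appropriate level; five concentrations were tested over 48 hours in 96-well plates. Abbreviation: GI50, concentration required for 50% inhibition of growth.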 Active and inactive are the calls of the source. Cut-off read from the data, not from the text of the source: active = GI50 up to about 1.1 µM and inactive = higher.

What was measured:
Assay in all cases: NCI-60 cell line screen, 48 h
BT-549 = tested on: BT-549
KM-20L2 = tested on: KM-20L2
DMS-114 = tested on: DMS-114
SNB-78 = tested on: SNB-78
HOP-18 = tested on: HOP-18
M19-MEL = tested on: M19-MEL
XF498 = tested on: XF498
RXF 631 = tested on: RXF 631
DLD-1 = tested on: DLD-1

## Cc1cc(S(=O)(=O)N/C(=N/N)NCCc2ccccc2)c(S)cc1Cl
BT-549
  GI50: 15.4 µM (inactive)

## Cc1ccccc1NC(=O)Cc1csc2[n+]1C(=O)/C(=C/c1ccc([N+](=O)[O-])cc1)S2
BT-549
  GI50: 13 µM (inactive)

## C[C@@H]1O[C@@H](O[C@H]2CC[C@]3(C=O)[C@H]4CC[C@]5(C)[C@@H](c6ccc(=O)oc6)CC[C@]5(O)[C@@H]4CC[C@]3(O)C2)[C@H](O)[C@H](O)[C@H]1O[C@@H]1O[C@H](CO)[C@@H](O)[C@H](O)[C@H]1O [HELLEBRIN]
BT-549
  GI50: 0.00509 µM (active)
KM-20L2
  GI50: 0.0187 µM (active)
DMS-114
  GI50: 0.00208 µM (active)
SNB-78
  GI50: 0.0375 µM (active)
HOP-18
  GI50: 0.00518 µM (active)
M19-MEL
  GI50: 0.0375 µM (active)
XF498
  GI50: 0.0375 µM (active)

## CC1(C)CC2(C)CC1CC2(O)c1ccccc1 (stereo not given)
BT-549
  GI50: > 100 µM (inactive)

## O=C(Nc1cccc2c1C(=O)c1c(NC(=O)c3ccccc3)ccc(Nc3cccc4c3C(=O)c3ccccc3C4=O)c1C2=O)c1ccccc1
KM-20L2
  GI50: > 100 µM (inactive)
DMS-114
  GI50: > 100 µM (inactive)
SNB-78
  GI50: > 100 µM (inactive)
RXF 631
  GI50: > 100 µM (inactive)
HOP-18
  GI50: > 100 µM (inactive)
M19-MEL
  GI50: > 100 µM (inactive)
DLD-1
  GI50: > 100 µM (inactive)

## O=C(c1nc2ccccc2nc1O)C(O)c1ccco1 (stereo not given)
KM-20L2
  GI50: 56.5 µM (inactive)
DMS-114
  GI50: 52.6 µM (inactive)
SNB-78
  GI50: > 100 µM (inactive)
M19-MEL
  GI50: > 100 µM (inactive)
XF498
  GI50: > 100 µM (inactive)

## CC(=O)/C(=N\O)C(=O)NCCc1ccccc1
KM-20L2
  GI50: 78.9 µM (inactive)
DMS-114
  GI50: 43.7 µM (inactive)
SNB-78
  GI50: > 100 µM (inactive)
HOP-18
  GI50: > 100 µM (inactive)
M19-MEL
  GI50: > 100 µM (inactive)
XF498
  GI50: 31.6 µM (inactive)
DLD-1
  GI50: 60.4 µM (inactive)

## N[C@@H]1CCN(c2c(F)cc3c(=O)c(C(=O)O)cn4c3c2Oc2c-4ccc3c2ccc2ccccc23)C1
BT-549
  GI50: > 100 µM (inactive)

## Cn1cco/c1=N/c1ccc(Cl)c(Cl)c1
BT-549
  GI50: > 10 µM (inactive)

## O=C1CCC(=O)N1n1c(Cc2ccccc2)n[nH]c1=O
BT-549
  GI50: > 100 µM (inactive)

## CN1CCC(n2[nH]c(-c3ccccc3)c(Cc3ccccc3)c2=O)CC1 [BENZPIPERYLON]
BT-549
  GI50: > 100 µM (inactive)

## COc1ccc(-c2cs/c(=N\c3ccccc3)n2CC(O)c2ccc([N+](=O)[O-])cc2)cc1 (stereo not given)
BT-549
  GI50: > 100 µM (inactive)

## Cc1ccc(-c2nc(-c3cnccn3)n(C3OC(CO)C(O)C(O)C3O)n2)cc1 (stereo not given)
BT-549
  GI50: > 100 µM (inactive)

## COc1cc([C@@H]2c3cc4c(cc3[C@@H](OC(=O)c3ccc(N)cc3)C3COC(=O)[C@@H]32)OCO4)cc(OC)c1O (stereo not given in full)
KM-20L2
  GI50: 1.88 µM (inactive)
SNB-78
  GI50: 15.2 µM (inactive)
RXF 631
  GI50: 9.1 µM (inactive)
HOP-18
  GI50: > 95.1 µM (inactive)
M19-MEL
  GI50: 4.99 µM (inactive)
DLD-1
  GI50: 5.6 µM (inactive)

## O=C1CCCCCCCCCCC1CN1CCCC1 (stereo not given)
BT-549
  GI50: 31.4 µM (inactive)

## Cc1ccccc1/N=N/c1cc(C)c(/N=N/c2c(O)ccc3ccccc23)cc1C
BT-549
  GI50: > 100 µM (inactive)

## Cc1cc(C(C)C)cc(=O)c(O)c1
KM-20L2
  GI50: > 100 µM (inactive)
SNB-78
  GI50: > 100 µM (inactive)
RXF 631
  GI50: > 100 µM (inactive)
HOP-18
  GI50: > 100 µM (inactive)
M19-MEL
  GI50: > 100 µM (inactive)
DLD-1
  GI50: > 100 µM (inactive)

## O=[N+]([O-])c1ccc(N2N=C(c3c(O)ccc4ccccc34)CC2c2ccc(Cl)cc2)c([N+](=O)[O-])c1 (stereo not given)
BT-549
  GI50: 32.5 µM (inactive)

## Cc1cc(C)n(-c2nc(-n3nc(C)cc3C)nc(-n3nc(C)cc3C)n2)n1
BT-549
  GI50: > 100 µM (inactive)

## O=C1c2cccnc2C(=O)C2C3C=CC(C3)C12 (stereo not given)
BT-549
  GI50: 11.5 µM (inactive)

## CC(=O)OCC1OC(Sc2nc(-c3ccc(C)cc3)c(C#N)c(=O)n2C2OC(COC(C)=O)C(OC(C)=O)C(OC(C)=O)C2OC(C)=O)C(OC(C)=O)C(OC(C)=O)C1OC(C)=O (stereo not given)
BT-549
  GI50: > 100 µM (inactive)

## CC(C)=Cc1cc(CCC/C(C)=C/Cc2c(O)cc(C)c(C(=O)O)c2O)co1
BT-549
  GI50: > 100 µM (inactive)

## COC(=O)C1OC(O[C@H]2CC[C@]3(C)[C@H]4CC=C5[C@@H]6CC(C)(C)CC[C@]6(C(=O)OC6OCC(O)C(O)C6OC6OC(C)C(OC7OCC(O)C(O)C7O)C(OC7OCC(O)(CO)C7O)C6O)[C@H](O)C[C@@]5(C)[C@]4(C)CC[C@H]3C2(C)C)C(O)C(O)C1O (stereo not given in full)
BT-549
  GI50: 2.64 µM (inactive)

## N#C/C(=N/Nc1[nH]cnc1C(N)=O)C(=O)Nc1ccccc1
BT-549
  GI50: > 100 µM (inactive)

## CO/N=C1\CC(C)N2C(=O)C(C(C)C)NC(=O)C(NC(=O)c3c4nc5c(C(=O)NC6C(=O)NC(C(C)C)C(=O)N7C(C)CC(O)C7C(=O)N(C)CC(=O)N(C)C(C(C)C)C(=O)OC6C)ccc(C)c5oc-4c(C)c(=O)c3N)C(CO)OC(=O)C(C)N(C)C(=O)CN(C)C(=O)C12 (stereo not given)
BT-549
  GI50: 2.45 µM (inactive)

## NCCN(CCN)/[N+]([O-])=N/O
BT-549
  GI50: > 100 µM (inactive)

## CSc1ccc(/C=C2\N=C(c3ccccc3)N(/N=C/c3cc4cc(C)ccc4nc3Cl)C2=O)cc1
BT-549
  GI50: 22.8 µM (inactive)

## CC(C)CCNC(=O)C(CC(C)C)NC(=O)[C@H]1O[C@@H]1C(=O)O (stereo not given in full)
BT-549
  GI50: > 100 µM (inactive)

## CCSC(=O)C1(C)OC2CCCCC2C1=O (stereo not given)
KM-20L2
  GI50: > 100 µM (inactive)
DMS-114
  GI50: > 100 µM (inactive)
SNB-78
  GI50: > 100 µM (inactive)
HOP-18
  GI50: > 100 µM (inactive)
M19-MEL
  GI50: > 100 µM (inactive)
DLD-1
  GI50: > 100 µM (inactive)

## NNC(=O)Nc1nc2ccc(NN)cc2[nH]1
BT-549
  GI50: 24 µM (inactive)

## O=C(NO)C(=O)Nc1cc(Cl)ccc1Cl
KM-20L2
  GI50: > 100 µM (inactive)
DMS-114
  GI50: 69.3 µM (inactive)
SNB-78
  GI50: > 100 µM (inactive)
RXF 631
  GI50: 62.7 µM (inactive)
HOP-18
  GI50: > 100 µM (inactive)
M19-MEL
  GI50: > 100 µM (inactive)
DLD-1
  GI50: > 100 µM (inactive)

## C=CCN1C2Cc3cc(OC)c(OC)cc3C1Cc1cc(OC)c(OC)cc12
KM-20L2
  GI50: > 100 µM (inactive)
SNB-78
  GI50: > 100 µM (inactive)
XF498
  GI50: > 100 µM (inactive)
DLD-1
  GI50: > 100 µM (inactive)

## CCCCCCCCCCC(C(=O)O)C1(C(=O)O)CCC(=O)O1 (stereo not given)
BT-549
  GI50: > 100 µM (inactive)

## CCCCn1c(N)c(-c2nc3ccccc3o2)sc1=S
BT-549
  GI50: 26.3 µM (inactive)
